What all share (format): cell-based
One assay deals with T1, STAT3 (Homo sapiens, UniProt P40763).
T1 construct: host or cells: HeLa (STAT3-HiBiT CRISPR knock-in clone)
Kind of assay: STAT3 degradation HiBiT assay (STAT3-HIBIT KI HeLa). As to conditions: STAT3-HIBIT KI HeLa cells, 24 hours. As to the method: STAT3-HIBIT KI HeLa cell line was purchased from Promega. This cell line is a clone created by using CRISPR-Cas9 to fuse HiBIT to the 3′ end of STAT3 in HeLa cells. DMEM medium and FBS were purchased from Gibco/Thermo Fisher Scientific. STAT3 degradation was determined based on quantification of luminescent signal using Nano-Glo HiBIT Lytic Detection System. In a typical procedure, cells seeded at 20000 cells per well in 96-well white plates (Corning) were incubated with serially diluted compounds for 24 hours at 37° C. with 5% CO2. At the end of treatment, Nano-Glo HiBIT Lytic Detection reagents was added to the wells and luminescence was acquired on TECAN PSARK plate reader. Untreated cells were used as control. Data points were fit with a four-parameter equation to generate a concentration-response curve. IC50 values were calculated using a nonlinear regression analysis of the mean±SD from triplicate.
Background: HiBiT is a short tag that completes a luciferase, so light tracks the accessible tagged protein.

The next assay deals with MOLM-16. Kind of assay: Cell viability assay (CellTiter-Glo 2.0), MOLM-16. The settings on record: MOLM16; MOLM-16 cells.
For another assay, the system named is SU-DHL-1. Kind of assay: Cell viability assay (CellTiter-Glo 2.0), SU-DHL-1. The settings on record: Homo sapiens, 96 h; SU-DHL-1 cells, 4 days. How it is done:
SU-DHL-1 and SUP-M2 cell viability was determined by CellTiter-Glo 2.0 Cell Viability Assay (Promega). […] In a typical procedure, cells seeded at 1000 cells per well in 384-well white plates (Corning) were incubated with serially diluted compounds for 4 days at 37° C. with 5% CO2. At the end of treatment, CellTiter-Glo 2.0 was added to the wells and luminescence was acquired on TECAN PSARK plate reader. Untreated cells were used as control. Data points were fit with a four-parameter equation to generate a concentration-response curve. IC50 values were calculated using a nonlinear regression analysis of the mean±SD from triplicate.
Background: Cellular ATP, detected with luciferase, serves as a proxy for viable cell number.

Here are results for two compounds from US20250195484A1, “CEREBLON LIGANDS AND USES THEREOF” (priority 2022, published 2025).

Bounds are passed on as bounds.

The DC50 is the concentration at which degradation of the target reaches its halfway point. In general, Dmax refers to the greatest extent of degradation seen. What is called IC50 is the concentration needed to halve the response being measured. Read a low IC50 as inhibition by little substance.

T1 sequence (P40763 whole entry): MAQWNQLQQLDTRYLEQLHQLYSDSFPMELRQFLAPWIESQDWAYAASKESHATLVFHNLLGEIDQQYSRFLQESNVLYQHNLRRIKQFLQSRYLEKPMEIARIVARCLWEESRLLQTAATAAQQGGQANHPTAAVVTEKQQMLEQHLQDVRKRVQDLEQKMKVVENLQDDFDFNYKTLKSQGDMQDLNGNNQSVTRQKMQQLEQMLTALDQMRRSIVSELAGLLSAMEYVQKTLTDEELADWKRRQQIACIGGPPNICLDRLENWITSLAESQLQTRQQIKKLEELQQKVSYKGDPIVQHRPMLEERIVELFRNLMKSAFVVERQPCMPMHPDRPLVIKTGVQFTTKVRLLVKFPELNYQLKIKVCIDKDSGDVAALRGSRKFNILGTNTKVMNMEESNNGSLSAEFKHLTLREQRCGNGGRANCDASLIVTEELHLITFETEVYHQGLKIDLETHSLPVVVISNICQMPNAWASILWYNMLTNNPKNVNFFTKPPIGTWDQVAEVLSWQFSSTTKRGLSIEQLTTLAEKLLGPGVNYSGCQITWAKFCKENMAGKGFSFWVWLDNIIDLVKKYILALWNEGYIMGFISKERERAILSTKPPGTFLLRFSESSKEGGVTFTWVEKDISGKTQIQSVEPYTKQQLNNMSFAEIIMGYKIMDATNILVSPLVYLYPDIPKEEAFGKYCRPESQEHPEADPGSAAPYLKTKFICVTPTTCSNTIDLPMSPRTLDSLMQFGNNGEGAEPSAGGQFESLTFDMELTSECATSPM

At STAT3, `CS(=O)(=O)c1cccc(OC[C@H](CCC(N)=O)NC(=O)[C@@H]2CC[C@@H]3CCN(C(=O)CCCCN4CCC5(CC4)COc4c5ccc5c4CN([C@H]4CCC(=O)NC4=O)C5=O)C[C@H](NC(=O)c4cc5cc(C(=O)P(=O)(O)O)ccc5[nH]4)C(=O)N32)c1` [STD 84, (2-(((5S,8S,10aR)-8-(((S)-5-amino-1-(3-(methylsulfonyl)phenoxy)-5-oxopentan-2-yl)carbamoyl)-3-(5-(7-((S)-2,6-dioxopiperidin-3-yl)-6-oxo-7,8-dihydro-2H,6H-spiro[furo[2,3-e]isoindole-3,4′-piperidin]-1′-yl)pentanoyl)-6-oxodecahydropyrrolo[1,2-a] [1,5]diazocin-5-yl)carbamoyl)-1H-indole-5-carbonyl)phosphonic acid] returned a DC50 of 100 to 1000 nM and a Dmax not below 80%. The compound further gave an IC50 in the assay on MOLM-16 of 100 to 1000 nM. The IC50 in the assay with SU-DHL-1 is 1000 to 10000 nM.
With `CS(=O)(=O)c1cccc(OC[C@H](CCC(N)=O)NC(=O)[C@@H]2CC[C@@H]3CCN(C(=O)CCCCN4CCC5(CC4)COc4c5ccc5c4CN([C@H]4CCC(=O)NC4=O)C5=O)C[C@H](NC(=O)c4cc5cc(C(F)(F)P(=O)(O)O)ccc5s4)C(=O)N32)c1` [STD 71, ((2-(((5S,8S,10aR)-8-(((S)-5-amino-1-(3-(methylsulfonyl)phenoxy)-5-oxopentan-2-yl)carbamoyl)-3-(5-(7-((S)-2,6-dioxopiperidin-3-yl)-6-oxo-7,8-dihydro-2H,6H-spiro[furo[2,3-e]isoindole-3,4′-piperidin]-1′-yl)pentanoyl)-6-oxodecahydropyrrolo[1,2-a][1,5]diazocin-5-yl)carbamoyl)benzo[b]thiophen-5-yl)difluoromethyl)phosphonic acid], the DC50 at STAT3 lay within 100 to 1000 nM. The compound also came in with a maximal degradation (Dmax) on STAT3 not below 80%. Also, the IC50 in the assay with MOLM-16 was in the range of 100 to 1000 nM; in the assay on SU-DHL-1, 1000 to 10000 nM.
